Source: patent US8435976B2, “4-substituted pyridin-3-yl-carboxamide compounds and methods of use” (F. Hoffmann-La Roche, priority 2009, dated 2013)

Tests used:
PIM1 = target: T1, PIM1 (Homo sapiens, UniProt P11309); assay: Pim-1 kinase enzymatic assay (Caliper LC3000, FAM-Pimtide substrate); format: biochemical; details: 20 pM PIM1, 10 μM ATP, 90 minutes; read-out: PIM1 LC3K (Ki)
T1 construct: made in house
Description: (§1) Reaction Buffer contained 10 mM HEPES, pH 7.2, 10 mM MgCl2, 0.01% Tween 20, 2 mM DTT.
(§2) PIM reactions were carried out in a final volume of 10 μL per well in a 384-well plate. […] The separation of product and substrate was optimized by choosing voltages and pressure using Caliper's Optimizer software (Hopkinton, Mass.). The separation conditions used a downstream voltage of −500V, an upstream voltage of −2150V, and a screening pressure of −1.2 psi. […] Substrate conversion was calculated from the electrophoregram using HTS Well Analyzer software (Caliper Life Sciences, Hopkinton, Mass.). Ki values for the test compound were calculated.

BaF3 PIM1 cells = BaF3 PIM1 cells (Homo sapiens, UniProt P11309); assay: BaF3 PIM1 cell proliferation (Cell Titer Glo); format: cell-based; details: incubated overnight; read-out: Prolif BaF3_PIM1 (IC50)
BaF3 PIM1 cells, sequence (P11309 whole entry, change not shown): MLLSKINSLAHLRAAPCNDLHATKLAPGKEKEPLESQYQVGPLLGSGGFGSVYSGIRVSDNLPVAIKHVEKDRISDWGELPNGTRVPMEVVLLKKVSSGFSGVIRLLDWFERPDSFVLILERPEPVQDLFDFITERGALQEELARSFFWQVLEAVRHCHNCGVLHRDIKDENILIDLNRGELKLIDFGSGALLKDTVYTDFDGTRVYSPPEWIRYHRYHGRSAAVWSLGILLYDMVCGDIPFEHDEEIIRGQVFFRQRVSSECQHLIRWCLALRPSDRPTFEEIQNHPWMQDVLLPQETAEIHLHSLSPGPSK
Description: (§3) BaF3 parental line was obtained from the DSMZ repository. BaF3 lines transfected with PIM1 or PIM2 were generated. Mouse IL-3 was purchased from R&D Systems. G418 was purchased from Clontech. Media for BaF3 parental line contained RPMI, 10% FBS, 2 mM L-Glutamine, 2 ng/mL mIL-3. Media for BaF3 PIM1 & 2 lines contained RPMI, 10% FBS, 2 mM L-Glutamine, […]. Media for MM1.S line contained RPMI, 10% FBS, 2 mM L-Glutamine.
(§4) BaF3 parental cells, BaF3 PIM1 cells, BaF3 PIM2 cells, and MM1.S cells were seeded at 2 k/well, 5 k/well, 5 k/well, and 10 k/well respectively, in a 384-well plate, at 45 μL/well. Test compound was added at 5 μL/well. BaF3 cells (parental and transfected) were incubated overnight, while MM1.S cells were incubated for 72 hours at 37° C., 5% CO2. Cell Titer Glo Reagent (Promega) was added at 50 μL/well, the plates were incubated for 30 minutes, and their luminescence read on an HT Analyst. IC50/EC50 values for the test compound were calculated.

PIM2 = target: T2, PIM2 (Homo sapiens, UniProt Q9P1W9); assay: Pim-2 kinase enzymatic assay (Caliper LC3000, FAM-Pimtide substrate); format: biochemical; details: 50 pM PIM2, 10 μM ATP, 90 minutes; read-out: PIM2 LC3K (Ki)
T2 construct: made in house
T2 sequence (Q9P1W9 whole entry): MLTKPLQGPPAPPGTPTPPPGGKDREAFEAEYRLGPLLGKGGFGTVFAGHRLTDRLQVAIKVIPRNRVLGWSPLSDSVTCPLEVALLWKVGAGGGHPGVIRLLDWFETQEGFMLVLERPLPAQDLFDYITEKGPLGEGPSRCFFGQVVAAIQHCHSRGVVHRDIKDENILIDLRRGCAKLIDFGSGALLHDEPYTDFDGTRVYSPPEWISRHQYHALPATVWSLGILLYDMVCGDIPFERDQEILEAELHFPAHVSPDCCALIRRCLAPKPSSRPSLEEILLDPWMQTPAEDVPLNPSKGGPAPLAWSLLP
Description: as §1, §2

PIM3 = target: T3, PIM3 (Homo sapiens, UniProt Q86V86); assay: Pim-3 kinase enzymatic assay (Caliper LC3000, FAM-Pimtide substrate); format: biochemical; details: 55 pM PIM3, 10 μM ATP, 90 minutes; read-out: PIM3 LC3K (Ki)
T3 construct: made in house
Description: as §1, §2

MM1.S cells = assay: MM1.S cell proliferation, 72 hours (Cell Titer Glo); format: cell-based; details: Homo sapiens, 72 hours, read-out: Prolif MM1S ATP (EC50)
Description: as §3, §4

T1 sequence (P11309 whole entry): as the sequence (P11309 whole entry, change not shown) above

Row | Compound | Ki (PIM1) [nM] | GI50 (BaF3 PIM1 cells) [nM] | Ki (PIM2) [nM] | Ki (PIM3) [nM] | EC50 (MM1.S cells) [nM]
1 | CC(C)c1nc(C(=O)Nc2cnccc2N2CCC[C@H](N)C2)c(N)s1 [Example 36, (S)-5-amino-N-(4-(3-aminopiperidin-1-yl)pyridin-3-yl)-2-isopropylthiazole-4-carboxamide] | 2.18 | 562 | 8.69 | 3.77 | 14000
2 | Nc1[nH]c(-c2ccccc2)nc1C(=O)Nc1cnccc1N1CCC[C@H](N)C1 [Example 20, (S)-5-amino-N-(4-(3-aminopiperidin-1-yl)pyridin-3-yl)-2-phenyl-1H-imidazole-4-carboxamide] | 1200 |  | 4900 | 496 | 
3 | Nc1sc(Cc2ccccc2)nc1C(=O)Nc1cnccc1N1CCC[C@H](NC(=O)C(F)(F)F)C1 [Example 49, (S)-5-amino-2-benzyl-N-(4-(3-(2,2,2-trifluoroacetamido)piperidin-1-yl)pyridin-3-yl)thiazole-4-carboxamide] | 29.7 | 4000 | 259 | 91.2 | > 20000
4 | Nc1sc(Cc2ccccc2)nc1C(=O)Nc1cnccc1N1CCC[C@H](N)C1 [Example 38, (S)-5-amino-N-(4-(3-aminopiperidin-1-yl)pyridin-3-yl)-2-benzylthiazole-4-carboxamide] | 3.73 | 3200 | 33.8 | 12.7 | 11900
5 | N[C@H]1CCCN(c2ccncc2NC(=O)c2csc(-c3ccccc3)n2)C1 [Example 48, (S)-N-(4-(3-aminopiperidin-1-yl)pyridin-3-yl)-2-phenylthiazole-4-carboxamide] | 1.33 | 1400 | 6.84 | 0.487 | 8000
6 | N[C@H]1CCCN(c2ccncc2NC(=O)c2csc(-c3c(F)cccc3F)n2)C1 [Example 46, (S)-N-(4-(3-aminopiperidin-1-yl)pyridin-3-yl)-2-(2,6-difluorophenyl)thiazole-4-carboxamide] |  |  |  |  | 4800
7 | Nc1sc(-c2ccccc2)nc1C(=O)Nc1cccnc1 [Example 14, 5-amino-2-phenyl-N-(pyridin-3-yl)thiazole-4-carboxamide] | 36.7 |  | 195 | 9.25 | > 20000
8 | Nc1sc(-c2cccc(Cl)c2)nc1C(=O)Nc1cnccc1N1CCC[C@H](N)C1 [Example 13, (S)-5-amino-N-(4-(3-aminopiperidin-1-yl)pyridin-3-yl)-2-(3-chlorophenyl)thiazole-4-carboxamide] | 0.102 |  | 0.403 | 0.04 | > 20000
9 | Nc1scnc1C(=O)Nc1cnccc1N1CCC[C@H](N)C1 [Example 10, (S)-5-amino-N-(4-(3-aminopiperidin-1-yl)pyridin-3-yl)thiazole-4-carboxamide] | 36.7 | 3600 | 51.2 | 24 | > 20000
10 | Nc1sc(C2CCCCC2)nc1C(=O)Nc1cnccc1N1CCC[C@H](N)C1 [Example 37, (S)-5-amino-N-(4-(3-aminopiperidin-1-yl)pyridin-3-yl)-2-cyclohexylthiazole-4-carboxamide] | 1.14 | 2200 | 0.635 |  | 2100
11 | Nc1sc(-c2c(F)cccc2Cl)nc1C(=O)Nc1cnccc1N1CCC[C@H](N)C1 [Example 55, (S)-5-amino-N-(4-(3-aminopiperidin-1-yl)pyridin-3-yl)-2-(2-chloro-6-fluorophenyl)thiazole-4-carboxamide] | 0.032 |  | 0.12 | 0.028 | 158
12 | Nc1sc(C2CCNC2)nc1C(=O)Nc1cnccc1N1CCCC(N)C1 (centres unmarked) [Example 64, 5-amino-N-(4-(3-aminopiperidin-1-yl)pyridin-3-yl)-2-(pyrrolidin-3-yl)thiazole-4-carboxamide] | 21.6 |  | 57.7 | 18 | 
13 | Nc1sc(-c2c(F)cccc2F)nc1C(=O)Nc1cnccc1N1CCC[C@H](N)C1 (single isomer, unassigned) [Example 25] |  | 1500 |  |  | 1500
